Reference: ChEMBL document CHEMBL1139557, “Synthesis and relative bioavailability of meptazinol benzoyl esters as prodrugs” (Bioorg Med Chem Lett, 2005)

Assays:
[1] = (§1) Bioavailability in rat; format: ADME, organism-based; conditions: in vivo
[2] = as §1; format: ADME, organism-based; conditions: in vivo; remark: listed apart in the source
[3] = as §1; format: ADME, organism-based; conditions: in vivo; remark: listed apart in the source
[4] = as §1; format: ADME, organism-based; conditions: in vivo; remark: listed apart in the source
[5] = as §1; format: ADME, organism-based; conditions: in vivo; remark: listed apart in the source
[6] = as §1; format: ADME, organism-based; conditions: in vivo; remark: listed apart in the source
[7] = Relative bioavailability in jejunum closed loop study in rats; Mean of 4 exp; format: ADME, organism-based; conditions: rat, in vivo, other
[8] = Relative bioavailability in stomach closed loop study in rats; Mean of 4 exp; format: ADME, organism-based; conditions: rat, in vivo; read-out: Relative Bioavailability
Mus musculus [9] = assay: Analgesic activity against mice in acetylcholine induced mice writhing test when dosed at 50 umol/kg (ig) administration after 40 min; format: functional
Mus musculus [10] = assay: Analgesic activity in hot plate test when dosed at 100 umol/kg intraperitoneally; format: functional
Mus musculus [11] = assay: Analgesic activity against mice in acetylcholine induced mice writhing test when dosed at 50 umol/kg (ig) administration after 80 min; format: functional
Mus musculus [12] = assay: Analgesic activity against mice in hot plate test when dosed at 100 umol/kg intraperitoneally; format: functional

Structure (SMILES)	bioavailability [1]	bioavailability [2]	F [3]	bioavailability [4]	bioavailability [5]	F [6]	Relative Bioavailability [7]	bioavailability [8]	Activity (Mus musculus [9])	Activity (Mus musculus [10])	Activity (Mus musculus [11])	bioavailability [3]	bioavailability [6]	Activity (Mus musculus [12])	F [5]
CCC1(c2cccc(OC(=O)c3c(C)cccc3N)c2)CCCCN(C)C1 (stereo unspecified)	149%	130%	174.27%	136%	120%	167.97%	–	–	–	–	–	–	–	–	–
CCC1(c2cccc(OC(=O)c3c(C)cccc3N)c2)CCCCN(C)C1.Cl (stereo unspecified)	–	–	–	–	–	–	562.72%	65.4%	–	–	–	–	–	–	–
CCC1(c2cccc(OC(=O)c3ccccc3)c2)CCCCN(C)C1 (stereo unspecified)	133%	75.4%	–	112%	53.9%	–	–	–	2	4	2	58.1%	81.6%	–	–
CCC1(c2cccc(OC(=O)c3ccccc3N)c2)CCCCN(C)C1 (stereo unspecified)	80.4%	59.8%	–	107%	–	–	–	–	1	–	0	101%	81.9%	3	183.64%
